Results from patent US10160755B2 (Plexxikon Inc., priority 2015, dated 2018).

What follows are molecules tested against T1, BA/F3-FLT3-ITD + F691L cells (Homo sapiens, UniProt P36888, F691L, cells depend on it, form not given) (assay: BA/F3-FLT3-ITD + F691L cell proliferation assay (CellTiter-Glo)). Details: BaF3 FLT3 ITD/F691L cells; read-out: Cell Activity (IC50 μM) BaF3_FLT3_ITD/F691L.
T1 sequence (P36888 1-993 F691L): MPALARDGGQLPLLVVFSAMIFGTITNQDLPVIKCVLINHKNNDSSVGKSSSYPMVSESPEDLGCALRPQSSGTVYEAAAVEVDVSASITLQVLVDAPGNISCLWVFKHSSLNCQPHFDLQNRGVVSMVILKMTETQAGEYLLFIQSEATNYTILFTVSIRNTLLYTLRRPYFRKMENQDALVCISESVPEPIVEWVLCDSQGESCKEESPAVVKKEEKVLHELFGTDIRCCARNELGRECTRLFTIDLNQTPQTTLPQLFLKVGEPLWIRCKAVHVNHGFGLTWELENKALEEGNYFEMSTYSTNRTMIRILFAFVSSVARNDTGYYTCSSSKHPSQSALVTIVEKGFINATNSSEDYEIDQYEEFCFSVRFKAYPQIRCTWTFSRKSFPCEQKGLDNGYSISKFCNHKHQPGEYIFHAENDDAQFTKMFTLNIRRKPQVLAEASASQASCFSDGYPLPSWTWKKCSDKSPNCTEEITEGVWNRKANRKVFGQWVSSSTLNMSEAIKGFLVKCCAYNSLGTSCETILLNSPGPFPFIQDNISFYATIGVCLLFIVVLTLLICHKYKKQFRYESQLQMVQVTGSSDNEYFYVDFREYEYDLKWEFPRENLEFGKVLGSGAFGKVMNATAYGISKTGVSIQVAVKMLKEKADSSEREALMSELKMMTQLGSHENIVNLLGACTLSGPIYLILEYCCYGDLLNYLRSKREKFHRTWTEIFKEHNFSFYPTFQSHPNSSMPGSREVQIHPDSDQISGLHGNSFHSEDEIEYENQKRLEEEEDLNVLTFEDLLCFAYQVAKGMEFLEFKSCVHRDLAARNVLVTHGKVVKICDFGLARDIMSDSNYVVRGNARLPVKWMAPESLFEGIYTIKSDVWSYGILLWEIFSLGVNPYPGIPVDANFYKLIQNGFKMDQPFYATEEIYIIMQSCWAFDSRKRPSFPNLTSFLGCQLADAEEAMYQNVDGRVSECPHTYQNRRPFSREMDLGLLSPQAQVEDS
Assay type: cell-based, murine
In short: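 Three-day growth assay, IC50 from CellTiter-Glo ATP luminescence vs concentration. Compounds at 10 to 0.0046 μM (1:3 steps, final DMSO 0.2%) on 1×10^4 cells/well. Cells are IL-3-independent BA/F3 lines engineered to express full-length FLT3-ITD with the D835Y or the F691L mutation.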

GI50 [µM] | Structure (SMILES)
0.0001 to 1 | O=S1(=O)CCCN1c1cc(-c2cnc3[nH]cc(-c4ccc5ncn(C6CCCNC6)c5c4)c3c2)ccn1 (stereo not shown) [P-311, 2-[4-[3-[3-(3-piperidyl)benzimidazol-5-yl]-1H-pyrrolo[2,3-b]pyridin-5-yl]-2-pyridyl]-1,2-thiazolidine 1,1-dioxide]
0.0001 to 1 | Cc1ncc(C#Cc2cnc3[nH]cc(-c4ccc5ncn(C6CCCNC6)c5c4)c3n2)cn1 (stereo not shown) [P-285, 2-[2-(2-methylpyrimidin-5-yl)ethynyl]-7-[3-(3-piperidyl)benzimidazol-5-yl]-5H-pyrrolo[2,3-b]pyrazine]
0.0001 to 1 | COc1cc(C#Cc2cnc3[nH]cc(-c4ccc5ncn(C(C)(C)C)c5c4)c3n2)ccn1 [P-279, 7-(1-(tert-butyl)-1H-benzo[d]imidazol-6-yl)-2-((2-methoxypyridin-4-yl)ethynyl)-5H-pyrrolo[2,3-b]pyrazine]
0.0001 to 1 | COc1cc(C#Cc2cnc3[nH]cc(-c4ccc5ncn(C6CCCNC6)c5c4)c3n2)ccn1 (stereo not shown) [P-280, 2-((2-methoxypyridin-4-yl)ethynyl)-7-(1-(piperidin-3-yl)-1H-benzo[d]imidazol-6-yl)-5H-pyrrolo[2,3-b]pyrazine]
0.0001 to 1 | O=S1(=O)CCCCN1c1cc(-c2cnc3[nH]cc(-c4ccc5ncn(C6CCCNC6)c5c4)c3n2)ccn1 (stereo not shown) [P-310, 2-[4-[7-[3-(3-piperidyl)benzimidazol-5-yl]-5H-pyrrolo[2,3-b]pyrazin-2-yl]-2-pyridyl]thiazinane 1,1-dioxide]
0.0001 to 1 | c1nc(N2CCOCC2)ncc1-c1cnc2[nH]cc(-c3ccc4ncn(C5CCCNC5)c4c3)c2c1 (stereo not shown) [P-277, 4-[5-[3-[3-(3-piperidyl)benzimidazol-5-yl]-1H-pyrrolo[2,3-b]pyridin-5-yl]pyrimidin-2-yl]morpholine]
0.0001 to 1 | CC(C)(C)n1cnc2ccc(-c3c[nH]c4ncc(-c5ccc(N6CCCCC6)cc5)nc34)cc21 [P-345, 7-(3-tert-butylbenzimidazol-5-yl)-2-[4-(1-piperidyl)phenyl]-5H-pyrrolo[2,3-b]pyrazine]
0.0001 to 1 | CC(C)(C)n1cnc2ccc(-c3c[nH]c4ncc(-c5ccnc(C#N)c5)cc34)cc21 [P-291, 4-[3-(3-tert-butylbenzimidazol-5-yl)-1H-pyrrolo[2,3-b]pyridin-5-yl]pyridine-2-carbonitrile]
0.0001 to 1 | FC(F)n1cc(-c2cnc3[nH]cc(-c4ccc5ncn(C6CCCNC6)c5c4)c3c2)cn1 (stereo not shown) [P-274, 5-[1-(difluoromethyl)pyrazol-4-yl]-3-[3-(3-piperidyl)benzimidazol-5-yl]-1H-pyrrolo[2,3-b]pyridine]
0.0001 to 1 | CC(C)(C)n1cnc2ccc(-c3c[nH]c4ncc(-c5cccc(N6CCCCC6)c5)nc34)cc21 [P-336, 7-(3-tert-butylbenzimidazol-5-yl)-2-[3-(1-piperidyl)phenyl]-5H-pyrrolo[2,3-b]pyrazine]
0.0001 to 1 | O=S1(=O)CCCN1c1ccc(-c2cnc3[nH]cc(-c4ccc5ncn(C6CCCNC6)c5c4)c3c2)cc1 (stereo not shown) [P-319, 2-[4-[3-[3-(3-piperidyl)benzimidazol-5-yl]-1H-pyrrolo[2,3-b]pyridin-5-yl]phenyl]-1,2-thiazolidine 1,1-dioxide]

The remaining lines, values behind:

Structure (SMILES) | GI50 [µM]
CC(C)(C)n1cnc2ccc(-c3c[nH]c4ncc(-c5cnc(F)c(F)c5)nc34)cc21 [P-390, 7-(3-tert-butylbenzimidazol-5-yl)-2-(5,6-difluoro-3-pyridyl)-5H-pyrrolo[2,3-b]pyrazine] | 0.0001 to 1
c1cc(-c2cnc3[nH]cc(-c4ccc5ncn(C6CCCNC6)c5c4)c3n2)cc(N2CCCCC2)n1 (stereo not shown) [P-339, 7-[3-(3-piperidyl)benzimidazol-5-yl]-2-[2-(1-piperidyl)-4-pyridyl]-5H-pyrrolo[2,3-b]pyrazine] | 0.0001 to 1
CN1CCN(c2cccc(-c3cnc4[nH]cc(-c5ccc6ncn(C7CCCNC7)c6c5)c4n3)c2)CC1 (stereo not shown) [P-332, 2-[3-(4-methylpiperazin-1-yl)phenyl]-7-[3-(3-piperidyl)benzimidazol-5-yl]-5H-pyrrolo[2,3-b]pyrazine] | 0.0001 to 1
COc1cc(-c2cnc3[nH]cc(-c4ccc5ncn(C6(C(F)(F)F)CC6)c5c4)c3n2)ccn1 [P-312, 2-(2-methoxy-4-pyridyl)-7-[3-[1-(trifluoromethyl)cyclopropyl]benzimidazol-5-yl]-5H-pyrrolo[2,3-b]pyrazine] | 0.0001 to 1
COc1cc(-c2cnc3[nH]cc(-c4ccc5ncn(C(C)(C)C)c5c4)c3c2)c(OC)nn1 [P-292, 1-tert-butyl-6-[5-(3,6-dimethoxypyridazin-4-yl)-1H-pyrrolo[2,3-b]pyridin-3-yl]benzimidazole] | 0.0001 to 1
CCN1CCN(c2ccc(-c3cnc4[nH]cc(-c5ccc6ncn(C7CCCNC7)c6c5)c4n3)cn2)CC1 (stereo not shown) [P-366, 2-[6-(4-ethylpiperazin-1-yl)-3-pyridyl]-7-[3-(3-piperidyl)benzimidazol-5-yl]-5H-pyrrolo[2,3-b]pyrazine] | 0.0001 to 1
CC(C)(C)n1cnc2ccc(-c3c[nH]c4ncc(-c5ccc(C#N)nc5)cc34)cc21 [P-290, 5-[3-(3-tert-butylbenzimidazol-5-yl)-1H-pyrrolo[2,3-b]pyridin-5-yl]pyridine-2-carbonitrile] | 0.0001 to 1
COc1cc(-c2cc3c(-c4ccc5ncn(C(C)(C)C)c5c4)c[nH]c3nn2)ccn1 [P-315, 5-(3-tert-butylbenzimidazol-5-yl)-3-(2-methoxy-4-pyridyl)-7H-pyrrolo[2,3-c]pyridazine] | 0.0001 to 1
CC(C)(C)n1cnc2ccc(-c3c[nH]c4ncc(-c5cnc(O)nc5)nc34)cc21 [P-363, 5-[7-(3-tert-butylbenzimidazol-5-yl)-5H-pyrrolo[2,3-b]pyrazin-2-yl]pyrimidin-2-ol] | 0.0001 to 1
Cn1cnc2ccc(-c3c[nH]c4nnc(Cl)cc34)cc21 [P-313, 3-chloro-5-(3-methylbenzimidazol-5-yl)-7H-pyrrolo[2,3-c]pyridazine] | 0.0001 to 1
COc1cnc2[nH]cc(-c3ccc4ncn(C5CCCNC5)c4c3)c2c1 (stereo not shown) [P-079, 5-methoxy-3-[3-(3-piperidyl)benzimidazol-5-yl]-1H-pyrrolo[2,3-b]pyridine] | 0.0001 to 1
c1cc(-c2cnc3[nH]cc(-c4ccc5ncn(C6CCCNC6)c5c4)c3n2)cc(N2CCCCC2)c1 (stereo not shown) [P-337, 7-[3-(3-piperidyl)benzimidazol-5-yl]-2-[3-(1-piperidyl)phenyl]-5H-pyrrolo[2,3-b]pyrazine] | 0.0001 to 1
CC(C)(C)n1cnc2ccc(-c3c[nH]c4ncc(-c5ccc(N6CCC(F)(F)CC6)nc5)nc34)cc21 [P-356, 7-(3-tert-butylbenzimidazol-5-yl)-2-[6-(4,4-difluoro-1-piperidyl)-3-pyridyl]-5H-pyrrolo[2,3-b]pyrazine] | 0.0001 to 1
COc1cnc2[nH]cc(-c3ccc4ncn(C5CCC5)c4c3)c2c1 [P-061, 1-cyclobutyl-6-(5-methoxy-1H-pyrrolo[2,3-b]pyridin-3-yl)benzimidazole] | 0.0001 to 1
Cc1ncc(-c2cnc3[nH]cc(-c4ccc5ncn(C(C)(C)C)c5c4)c3n2)cn1 [P-289, 7-(3-tert-butylbenzimidazol-5-yl)-2-(2-methylpyrimidin-5-yl)-5H-pyrrolo[2,3-b]pyrazine] | 0.0001 to 1
CCN1CCN(c2cc(-c3cnc4[nH]cc(-c5ccc6ncn(C(C)(C)C)c6c5)c4n3)ccn2)CC1 [P-328, 7-(3-tert-butylbenzimidazol-5-yl)-2-[2-(4-ethylpiperazin-1-yl)-4-pyridyl]-5H-pyrrolo[2,3-b]pyrazine] | 0.0001 to 1
CCN1CCN(c2cccc(-c3cnc4[nH]cc(-c5ccc6ncn(C(C)(C)C)c6c5)c4n3)c2)CC1 [P-330, 7-(3-tert-butylbenzimidazol-5-yl)-2-[3-(4-ethylpiperazin-1-yl)phenyl]-5H-pyrrolo[2,3-b]pyrazine] | 0.0001 to 1
c1cc(N2CCOCC2)ncc1-c1cnc2[nH]cc(-c3ccc4ncn(C5CCCNC5)c4c3)c2n1 (stereo not shown) [P-325, 4-[5-[7-[3-(3-piperidyl)benzimidazol-5-yl]-5H-pyrrolo[2,3-b]pyrazin-2-yl]-2-pyridyl]morpholine] | 0.0001 to 1
CC(C)(C)n1cnc2ccc(-c3n[nH]c4ncc(-c5ccnc(N6CCOCC6)c5)cc34)cc21 [P-297, 4-[4-[3-(3-tert-butylbenzimidazol-5-yl)-1H-pyrazolo[3,4-b]pyridin-5-yl]-2-pyridyl]morpholine] | 0.0001 to 1
CC(C)(C)n1cnc2ccc(-c3c[nH]c4ncc(-c5ccc(N6CCCCC6)nc5)nc34)cc21 [P-347, 7-(1-(tert-butyl)-1H-benzo[d]imidazol-6-yl)-2-(6-(piperidin-1-yl)pyridin-3-yl)-5H-pyrrolo[2,3-b]pyrazine] | 0.0001 to 1
